Reference: PMC8591608, “DNDI-6148: A Novel Benzoxaborole Preclinical Candidate for the Treatment of Visceral Leishmaniasis” (Journal of Medicinal Chemistry, 2021)
Like-named read-outs stand apart in the source and are kept apart here.

Columns and labels:
PMM cytotoxicity assay = format: cell-based; conditions: mouse, primary peritoneal mouse macrophages (PMM), geometric mean of at least two independent tests
Procedure: (§1) Primary peritoneal mouse macrophages (PMM) were collected two days after peritoneal stimulation with a 2% potato starch suspension. MRC5SV2 cells (diploid human embryonic lung fibroblasts) were cultured in minimal essential medium (MEM) containing Earle’s salts, supplemented with L-glutamine, NaHCO3, and 5% inactivated fetal calf serum. All cultures and assays were conducted at 37 °C under an atmosphere of 5% CO2.
(§2) Assays were performed in sterile 96-well microtiter plates, each well containing 10 μL of the compound dilution and 190 μL of MRC5SV2 or PMM inoculum (3 × 10^4 cells/mL). Cell growth was compared to untreated controls (100% growth) and assay-media controls (0% growth). After three-day incubation, cell viability was assessed fluorometrically by adding resazurin (50 μL/well of a stock solution in phosphate buffer (50 μg/mL)), incubating for 4 h and measuring fluorescence (λex 550 nm, λem 590 nm). The results were expressed as a percentage reduction in cell growth compared to untreated control wells. […] Tamoxifen was included as the reference drug.

[1] = Liver microsome stability, hamster; format: in vitro ADME; conditions: golden (Syrian), hamster liver microsomes, pH 7.4, Table 4, read-out: HamLM Clint
Procedure: (§3) Tests were performed by WuXi AppTec, China. Test compounds (at 1 μM) or positive controls (testosterone, propafenone, and diclofenac) were incubated at 37 °C with liver microsomes from Balb/c mouse, golden (Syrian) hamster, Sprague-Dawley rat, Beagle dog, or human in the presence of a NADPH regenerating system and phosphate buffer (100 mM, pH 7.4) at 0.4 or 0.8 mg/mL microsomal protein. The samples were removed at time intervals from 0 to 60, 90, or 120 min and immediately mixed with cold methanol supplemented or not with acid (3% formic acid) and centrifuged prior to analysis by LC-MS/MS using tolbutamide or propranolol as internal standards.

L. infantum = test: Intramacrophage L. infantum assay; format: cell-based; conditions: Leishmania infantum, geometric mean of at least two independent tests
Procedure: L. infantum (MHOM/MA/67/ITMAP263) and L. donovani (MHOM/ET/67/L82) were maintained in the golden (Syrian) hamster (Mesocricetus auratus). Ex vivo amastigotes were collected from the spleen of an infected donor hamster using two centrifugation purification steps: 230g for 10 min, keeping the supernatant layer, and 4100g for 30 min, keeping the pellet. The spleen parasite burden was assessed using the Stauber technique.[25] For in vitro assays, the inoculum was prepared in RPMI-1640 medium, supplemented with 200 mM L-glutamine, 16.5 mM NaHCO3, and 5% inactivated fetal calf serum. For the in vivo model, an infection inoculum containing 2 × 10^7 amastigotes/100 μL was prepared in phosphate-buffered saline (PBS).
The assay was performed in sterile 96-well microtiter plates, each well containing 10 μL of the compound dilution and 190 μL of the PMM/amastigote inoculum (3 × 10^4 cells/4.5 × 10^5 parasites per well). Parasite multiplication was compared to untreated infected controls (100% growth) and uninfected controls (0% growth). After five-day incubation, total parasite burdens were microscopically assessed after staining the cells with a 10% Giemsa solution. The results were expressed as a percentage reduction in parasite burden compared to untreated control wells. EC50 values were determined using an extended dose range (2-fold compound dilutions, 8-point concentration curve). Miltefosine was used as the reference drug.[26] For selected compounds, this assay format was also run using the L. donovani inoculum.

MRC5 cytotoxicity assay = format: cell-based; conditions: human, MRC5SV2 cells (human embryonic lung fibroblasts), geometric mean of at least two independent tests
Procedure: as §1, §2

[2] = Liver microsome stability, human; format: in vitro ADME; conditions: human liver microsomes
Procedure: as §3

[3] = Table 4, read-out: intramacrophage L. infantum EC50
[4] = pH 7.4, Table 4, read-out: HLM Clint
[5] = Table 5, read-out: intramacrophage L. infantum amastigote EC50

## O=C(Nc1ccc2c(c1)B(O)OC2)c1cn(C(F)(F)F)nc1C(F)(F)F [Compound 4, N-(1-Hydroxy-1,3-dihydrobenzo[c][1,2]oxaborol-6-yl)-1,3-bis(trifluoromethyl)-1H-pyrazole-4-carboxamide]
PMM cytotoxicity assay; Table 4
  CC50 at 3 days: > 64 µM
[1]
  microsomal CLint at 2 h, 1 µM: 1040 µL/min/mg
L. infantum; [3]
  EC50: 2.1 µM
MRC5 cytotoxicity assay; Table 4
  CC50 at 3 days: > 64 µM
[2]; [4]
  microsomal CLint at 1 μM: < 11.9 µL/min/mg

## O=C(Nc1ccc2c(c1)B(O)OC2)c1cn(CCC(F)(F)F)nc1C(F)(F)F [Compound 6, N-(1-Hydroxy-1,3-dihydrobenzo[c][1,2]oxaborol-6-yl)-3-(trifluoromethyl)-1-(3,3,3-trifluoropropyl)-1H-pyrazole-4-carboxamide]
PMM cytotoxicity assay; Table 4
  CC50 at 72 h: 38 µM
[1]
  microsomal CLint at 2 h, 1 µM: 114 µL/min/mg
L. infantum; [3]
  EC50: 1.3 µM
MRC5 cytotoxicity assay; Table 4
  CC50 at 72 h: 49 µM
[2]; [4]
  microsomal CLint at 1 μM: < 11.9 µL/min/mg

## Cc1nn(CCC(F)(F)F)cc1C(=O)Nc1ccc2c(c1)B(O)OC2 [Compound 7, N-(1-Hydroxy-1,3-dihydrobenzo[c][1,2]oxaborol-6-yl)-3-methyl-1-(3,3,3-trifluoropropyl)-1H-pyrazole-4-carboxamide]
PMM cytotoxicity assay; Table 4
  CC50 at 3 days: > 64 µM
L. infantum; [3]
  EC50: 5.7 µM
MRC5 cytotoxicity assay; Table 4
  CC50 at 3 days: > 64 µM

## Cc1nn(C2CCC2)cc1C(=O)Nc1ccc2c(c1)B(O)OC2 [Compound 8, Cyclobutyl-N-(1-hydroxy-1,3-dihydrobenzo[c][1,2]oxaborol-6-yl)-3-methyl-1H-pyrazole-4-carboxamide]
PMM cytotoxicity assay; Table 4
  CC50 at 3 days: > 64 µM
[1]
  microsomal CLint at 2 h, 1 µM: 57 µL/min/mg
L. infantum; [3]
  EC50: 16 µM
MRC5 cytotoxicity assay; Table 4
  CC50 at 3 days: > 64 µM
[2]; [4]
  microsomal CLint at 1 μM: < 11.9 µL/min/mg

## O=C(Nc1ccc2c(c1)B(O)OC2)c1cn(C2CCC2)nc1C(F)(F)F [Compound 9, 1-Cyclobutyl-N-(1-hydroxy-1,3-dihydrobenzo[c][1,2]oxaborol-6-yl)-3-(trifluoromethyl)-1H-pyrazole-4-carboxamide]
PMM cytotoxicity assay; Table 4
  CC50 at 72 h: 32 µM
[1]
  microsomal CLint at 2 h, 1 µM: 337 µL/min/mg
L. infantum; [3]
  EC50: 0.59 µM
MRC5 cytotoxicity assay; Table 4
  CC50 at 72 h: 26 µM
[2]; [4]
  microsomal CLint at 1 μM: < 11.9 µL/min/mg

## O=C(Nc1ccc2c(c1)B(O)OC2)c1cn(C2CCOCC2)nc1C(F)(F)F [Compound 10, N-(1-Hydroxy-1,3-dihydrobenzo[c][1,2]oxaborol-6-yl)-1-(tetrahydro-2H-pyran-4-yl)-3-(trifluoromethyl)-1H-pyrazole-4-carboxamide]
PMM cytotoxicity assay; Table 4
  CC50 at 3 days: > 64 µM
[1]
  microsomal CLint at 2 h, 1 µM: 109 µL/min/mg
L. infantum; [3]
  EC50: 3 µM
MRC5 cytotoxicity assay; Table 4
  CC50 at 3 days: > 64 µM
[2]; [4]
  microsomal CLint at 1 μM: < 11.9 µL/min/mg

## Cc1nn(-c2ccccn2)cc1C(=O)Nc1ccc2c(c1)B(O)OC2 [Compound 11, N-(1-Hydroxy-1,3-dihydro-2,1-benzoxaborol-6-yl)-3-methyl-1-(pyridine-2-yl)-1H-pyrazole-4-carboxamide]
PMM cytotoxicity assay; Table 4
  CC50 at 3 days: > 64 µM
L. infantum; [3]
  EC50: 5.7 µM
MRC5 cytotoxicity assay; Table 4
  CC50 at 3 days: > 64 µM
[2]; [4]
  microsomal CLint at 1 μM: < 11.9 µL/min/mg

## COc1ccccc1-n1cc(C(=O)Nc2ccc3c(c2)B(O)OC3)c(C)n1 [Compound 14, N-(1-Hydroxy-1,3-dihydro-2,1-benzoxaborol-6-yl)-1-(2-methoxyphenyl)-3-methyl-1H-pyrazole-4-carboxamide]
PMM cytotoxicity assay; Table 4
  CC50 at 3 days: > 64 µM
L. infantum; [3]
  EC50: 2.2 µM
MRC5 cytotoxicity assay; Table 4
  CC50 at 72 h: 15.7 µM

## Cc1c(C(=O)Nc2ccc3c(c2)B(O)OC3)cnn1CCC(F)(F)F [Compound 15, N-(1-Hydroxy-1,3-dihydrobenzo[c][1,2]oxaborol-6-yl)-5-methyl-1-(3,3,3-trifluoropropyl)-1H-pyrazole-4-carboxamide]
PMM cytotoxicity assay; Table 4
  CC50 at 3 days: > 64 µM
[1]
  microsomal CLint at 2 h, 1 µM: 48 µL/min/mg
L. infantum; [3]
  EC50: 14 µM
MRC5 cytotoxicity assay; Table 4
  CC50 at 3 days: > 64 µM
[2]; [4]
  microsomal CLint at 1 μM: < 11.9 µL/min/mg

## COc1cccc(-n2ncc(C(=O)Nc3ccc4c(c3)B(O)OC4)c2C)n1 [Compound 17, N-(1-Hydroxy-1,3-dihydrobenzo[c][1,2]oxaborol-6-yl)-1-(6-methoxypyridin-2-yl)-5-methyl-1H-pyrazole-4-carboxamide]
PMM cytotoxicity assay; Table 4
  CC50 at 3 days: > 64 µM
[1]
  microsomal CLint at 2 h, 1 µM: 40 µL/min/mg
L. infantum; [3]
  EC50: 1.4 µM
MRC5 cytotoxicity assay; Table 4
  CC50 at 72 h: 40 µM
[2]; [4]
  microsomal CLint at 1 μM: < 11.9 µL/min/mg

## Cc1cccc(-n2ncc(C(=O)Nc3ccc4c(c3)B(O)OC4)c2C)n1 [Compound 18, N-(1-Hydroxy-1,3-dihydrobenzo[c][1,2]oxaborol-6-yl)-5-methyl-1-(6-methylpyridin-2-yl)-1H-pyrazole-4-carboxamide]
PMM cytotoxicity assay; Table 4
  CC50 at 3 days: > 64 µM
[1]
  microsomal CLint at 2 h, 1 µM: 44 µL/min/mg
L. infantum; [3]
  EC50: 1.6 µM
MRC5 cytotoxicity assay; Table 4
  CC50 at 72 h: 41 µM
[2]; [4]
  microsomal CLint at 1 μM: < 11.9 µL/min/mg

## O=C(Nc1ccc2c(c1)B(O)OC2)c1cc(-c2ccccn2)n[nH]1 [Compound 19, N-(1-Hydroxy-1,3-dihydrobenzo[c][1,2]oxaborol-6-yl)-3-(pyridin-2-yl)-1H-pyrazole-5-carboxamide]
PMM cytotoxicity assay; Table 4
  CC50 at 72 h: 32 µM
[1]
  microsomal CLint at 2 h, 1 µM: 253 µL/min/mg
L. infantum; [3]
  EC50: 0.5 µM
MRC5 cytotoxicity assay; Table 4
  CC50 at 72 h: 4 µM
[2]; [4]
  microsomal CLint at 1 μM: < 11.9 µL/min/mg

## Cn1nc(-c2ccccn2)cc1C(=O)Nc1ccc2c(c1)B(O)OC2 [Compound 20, N-(1-Hydroxy-1,3-dihydrobenzo[c][1,2]oxaborol-6-yl)-1-methyl-3-(pyridin-2-yl)-1H-pyrazole-5-carboxamide]
PMM cytotoxicity assay; Table 4
  CC50 at 3 days: > 64 µM
[1]
  microsomal CLint at 2 h, 1 µM: 121 µL/min/mg
L. infantum; [3]
  EC50: 34 µM
MRC5 cytotoxicity assay; Table 4
  CC50 at 3 days: > 64 µM
[2]; [4]
  microsomal CLint at 2 h, 1 µM: 18 µL/min/mg

## Cn1nc(C(=O)Nc2ccc3c(c2)B(O)OC3)cc1-c1ccccn1 [Compound 21, N-(1-Hydroxy-1,3-dihydrobenzo[c][1,2]oxaborol-6-yl)-1-methyl-5-(pyridin-2-yl)-1H-pyrazole-3-carboxamide]
PMM cytotoxicity assay; Table 4
  CC50 at 3 days: > 64 µM
[1]
  microsomal CLint at 2 h, 1 µM: 106 µL/min/mg
L. infantum; [3]
  EC50: 1.8 µM
MRC5 cytotoxicity assay; Table 4
  CC50 at 72 h: 54 µM
[2]; [4]
  microsomal CLint at 2 h, 1 µM: 14 µL/min/mg

## Cc1c(C(=O)Nc2ccc3c(c2)B(O)OC3)nnn1-c1ccccc1 [Compound 24, N-(1-Hydroxy-1,3-dihydrobenzo[c][1,2]oxaborol-6-yl)-5-methyl-1-phenyl-1H-1,2,3-triazole-4-carboxamide]
PMM cytotoxicity assay; Table 5
  CC50 at 3 days: > 64 µM
L. infantum; [5]
  EC50: 37 µM
MRC5 cytotoxicity assay; Table 5
  CC50 at 3 days: > 64 µM
[2]; pH 7.4, Table 5, read-out: HLM Clint
  microsomal CLint at 1 μM: < 11.9 µL/min/mg

## Cc1cccc(-n2nnc(C(=O)Nc3ccc4c(c3)B(O)OC4)c2C)n1 [Compound 26, N-(1-Hydroxy-1,3-dihydrobenzo[c][1,2]oxaborol-6-yl)-5-methyl-1-(6-methylpyridin-2-yl)-1H-1,2,3-triazole-4-carboxamide]
PMM cytotoxicity assay; Table 5
  CC50 at 3 days: > 64 µM
L. infantum; [5]
  EC50: 6.4 µM
MRC5 cytotoxicity assay; Table 5
  CC50 at 3 days: > 64 µM

## Cc1c(C(=O)Nc2ccc3c(c2)B(O)OC3)nnn1-c1cccnc1 [Compound 27, N-(1-Hydroxy-1,3-dihydrobenzo[c][1,2]oxaborol-6-yl)-5-methyl-1-(pyridin-3-yl)-1H-1,2,3-triazole-4-carboxamide]
PMM cytotoxicity assay; Table 5
  CC50 at 3 days: > 64 µM
L. infantum; [5]
  EC50: 38 µM
MRC5 cytotoxicity assay; Table 5
  CC50 at 3 days: > 64 µM
